Values after ≈ are worked out from the molar mass of the structure shown.

The subject of data set [1] is amyloid deposits in murine AD neuronal tissue. Put plainly: Tissue staining of amyloid deposits in AD mouse brain sections. The conditions noted are these: for staining of amyloid deposits in murine AD neuronal tissue: figure legends; for fluorescence labeling of amyloid deposits in hippocampal brain sections: mouse model for Alzheimer's disease, FIG. 13.
Data set [2] can be described thus: Hydrolytic decomposition in PBS by HPLC. Format: physicochemical. The conditions noted are these: PBS with 5% DMSO, 25° C., read-out: t1/2 for hydrolysis (converted). The source says: In certain in vivo environments (especially at high or low pH or in the presence of esterases), ANCA-11 is expected to decompose very rapidly due to the poor stability of its ester functionality. The amide functionality in Compound 1 alleviates the problem of hydrolytic instability inherent to ANCA-11.

Data set [3] relates to amyloids derived from amyloid-β, PrP, and α-synuclein. Format: binding.
Data set [4] deals with aggregated Aβ(1-42) peptide (Homo sapiens, UniProt P05067). The conditions noted are these: in vitro; characteristic fluorescence upon binding to Alzheimer's related amyloids.
For data set [5], the system named is prion amyloid deposits in the retina.
The nature of the next data set: Solubility studies. The conditions noted are these: lower pH and higher buffer concentration.
For data set [6], the target named is amyloid deposits in the retina (Homo sapiens, UniProt P05067). The experiment in a line: Ex vivo retina analysis of J20 mice after systemic (tail vein) dosing. The conditions noted are these: J20 mouse, 30 minutes prior to sacrifice, co-localizes with anti-Aβ antibody.
amyloid deposits in the retina, sequence (P05067 672-713 limits assumed): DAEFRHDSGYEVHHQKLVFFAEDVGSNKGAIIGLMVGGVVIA

aggregated Aβ(1-42) peptide, sequence (P05067 672-713): as the sequence (P05067 672-713 limits assumed) above

On to `COC1OC(Cn2cc(CNC(=O)/C(C#N)=C/c3ccc4cc(N5CCCCC5)ccc4c3)nn2)C(O)C(O)C1O` (stereo not shown) [Compound 20, (E)-2-cyano-3-(6-(piperidin-1-yl)naphthalen-2-yl)-N-((1-((3,4,5-trihydroxy-6-methoxytetrahydro-2H-pyran-2-yl)methyl)-1H-1,2,3-triazol-4-yl)methyl)acrylamide], for which, in data set [1], the “staining of amyloid deposits in murine AD neuronal tissue” value (from here on “staining”) is listed as “staining of amyloid deposits”.

Turning to `COC1OC(Cn2cc(COCCOCCOCCNC(=O)/C(C#N)=C/c3ccc4cc(N5CCCCC5)ccc4c3)nn2)C(O)C(O)C1O` (stereo not shown) [Compound 19, (E)-2-cyano-3-(6-(piperidin-1-yl)naphthalen-2-yl)-N-(2-(2-(2-((1-((3,4,5-trihydroxy-6-methoxytetrahydro-2H-pyran-2-yl)methyl)-1H-1,2,3-triazol-4-yl)methoxy)ethoxy)ethoxy)ethyl)acrylamide], the “staining” value in data set [1] is “staining of amyloid deposits”.

For the molecule `COCCOCCOCCOC(=O)/C(C#N)=C/c1ccc2cc(N3CCCCC3)ccc2c1` [ANCA-11, (E)-2-(2-(2-methoxyethoxy)ethoxy)ethyl 2-cyano-3-(6-(piperidin-1-yl)naphthalen-2-yl)acrylate, reference compound], in data set [2], the half-life is ~11 h.

On to `COCCOCCOCCNS(=O)(=O)/C(C#N)=C/c1ccc2cc(N3CCCCC3)ccc2c1` [Compound 2, (E)-1-cyano-N-(2-(2-(2-methoxyethoxy)ethoxy)ethyl)-2-(6-(piperidin-1-yl)naphthalen-2-yl)ethenesulfonamide], for which the “fluorescence labeling of amyloid deposits in hippocampal brain sections” value in data set [1] is “fluorescence labeling of amyloid deposits”.

Regarding `N#C/C(=C\c1ccc2cc(N3CCCCC3)ccc2c1)C(=O)NCC(O)CO` (stereo not shown) [Compound 5, (E)-2-cyano-N-(2,3-dihydroxypropyl)-3-(6-(piperidin-1-yl)naphthalen-2-yl)acrylamide], the “staining” value in data set [1] is listed as “staining of amyloid deposits”.

Consider `COCCOCCOCCNC(=O)/C(C#N)=C/c1ccc2cc(N3CCCCC3)ccc2c1` [Compound 1, (E)-2-Cyano-N-(2-(2-(2-methoxyethoxy)ethoxy)ethyl)-3-(6-(piperidin-1-yl)naphthalen-2-yl)acrylamide], for which, in data set [3], the “discrimination of amyloids of different disease origin based on color of emission” value is listed as “can distinguish between amyloids of different disease origin based on color of emission”. Further, the “fluorescence labeling of amyloid deposits in hippocampal brain sections” value in data set [1] is listed as “fluorescence labeling of amyloid deposits”. Also, the half-life in data set [2] was ~150 h. In data set [4], the “ability to bind selectively to amyloids” value is on record as “bind selectively to amyloids”. For the same molecule, the “visualization of amyloid deposits in the retina of live mice” value in data set [5] (mice inoculated with GPI-anchorless PrP, intraperitoneal injection) is given as “allowed for the visualization of amyloid deposits in the retina”. The “accumulation in blood and retinal tissue after IP injection” value in data set [5] (wt mouse, fluorescence image immediately after IP injection) is “immediately accumulates in the blood and in the retinal tissue”. In addition, the solubility was > 6000 µg/mL in the data set “physchem” (aqueous buffer, solubility at lower pH and higher acidic buffer strength); > 5000 µg/mL in “physchem” (aqueous with cosolvent or surfactant or cyclodextrin, solubility in surfactants); 2000 to 3000 µg/mL (≈ 4.43 to 6.64 mM) in “physchem” (aqueous with cosolvent or surfactant or cyclodextrin, solubility in the other water miscible solvents listed); > 5000 µg/mL in “physchem” (oil or lipid, solubility in all oils tested); 20000 µg/mL (≈ 44.3 mM) in “physchem” (organic solvent or mixture, Solubility (mg/mL)); > 5000 µg/mL in the data set “physchem” (organic solvent or mixture, solubility in water miscible solvents: alcohols). In addition, the solubility in “physchem” (pH 2, aqueous buffer, solubility in acid buffers) is ≤ 350 µg/mL; in “physchem” (pH 2.5, aqueous buffer, Conc (mg/mL)), 1630 µg/mL (≈ 3.61 mM); in “physchem” (pH 7.4, aqueous buffer, Conc (mg/mL)), 7.4 µg/mL (≈ 0.0164 mM); in “physchem” (water, Conc (mg/mL)) it was 3.1 µg/mL (≈ 0.00686 mM); in the data set “physchem” (water, solubility in water), 3 µg/mL (≈ 0.00664 mM). Further, the “fold increase of solubility in acid buffer vs water” value in the data set “Solubility studies” was 100 fold. The “crossing of the blood-retina barrier” value in data set [6] is “can cross the blood-retina barrier”.

Take `COCCOCCOCCOCCOCCOCCNC(=O)/C(C#N)=C/c1ccc2cc(N3CCCCC3)ccc2c1` [Compound 3, (E)-2-cyano-N-(2,5,8,11,14,17-hexaoxanonadecan-19-yl)-3-(6-(piperidin-1-yl)naphthalen-2-yl)acrylamide]: the “staining” value in data set [1] is recorded as “staining of amyloid deposits”.

One may read the solubility as how much of the substance goes into solution per volume.

(Values after patent US11718596B2, “Amyloid targeting agents and methods of using the same” (The Regents of the University of California, priority 2014, dated 2023).)
